According to patent US6656932B2, “Benzo thiadiazine matrix metalloproteinase inhibitors” (Warner-Lambert Company, priority 2001, dated 2003):

Experiments:
Type in all cases: biochemical
[1] = target: T1, MMP-1FL (full-length interstitial collagenase) (Homo sapiens, UniProt P03956); assay: Thiopeptolide hydrolysis assay, MMP-1FL; conditions: Table 2; thiopeptolide substrate, HEPES pH 7.0; read-out: IC50 (μM) Versus Certain MMPs: MMP01 (FL)
T1 sequence (P03956 100-469): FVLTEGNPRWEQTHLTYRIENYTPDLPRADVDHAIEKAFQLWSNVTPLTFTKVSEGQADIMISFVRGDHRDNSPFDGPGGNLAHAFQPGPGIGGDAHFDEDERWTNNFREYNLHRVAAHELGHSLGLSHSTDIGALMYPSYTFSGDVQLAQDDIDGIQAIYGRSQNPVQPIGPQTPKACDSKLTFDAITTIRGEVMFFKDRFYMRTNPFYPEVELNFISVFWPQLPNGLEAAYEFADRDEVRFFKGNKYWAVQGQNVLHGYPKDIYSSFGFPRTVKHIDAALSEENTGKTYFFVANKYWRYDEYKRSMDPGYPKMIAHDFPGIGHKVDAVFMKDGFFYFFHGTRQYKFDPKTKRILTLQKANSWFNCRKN
Excerpt: (§1) The invention compounds of Formula I have been evaluated in standard assays for their ability to inhibit the catalytic activity of various MMP enzymes.
(§2) Thiopeptolide substrates show virtually no decomposition or hydrolysis at or below neutral pH in the absence of a matrix metalloproteinase enzyme.
(§3) Several representative compounds have been evaluated for their ability to inhibit various matrix metalloproteinase enzymes.

[2] = target: MMP-9FL (full-length Gelatinase B) (Homo sapiens, UniProt P14780); assay: Thiopeptolide hydrolysis assay, MMP-9FL; conditions: Table 2; thiopeptolide substrate, HEPES pH 7.0; read-out: IC50 (μM) Versus Certain MMPs: MMP09 (FL)
Excerpt: as §1, §2, §3

[3] = target: T2, MMP-7FL (full-length matrilysin) (Homo sapiens, UniProt P09237); assay: Thiopeptolide hydrolysis assay, MMP-7FL; conditions: Table 2; thiopeptolide substrate, HEPES pH 7.0; read-out: IC50 (μM) Versus Certain MMPs: MMP07 (FL)
T2 sequence (P09237 95-267): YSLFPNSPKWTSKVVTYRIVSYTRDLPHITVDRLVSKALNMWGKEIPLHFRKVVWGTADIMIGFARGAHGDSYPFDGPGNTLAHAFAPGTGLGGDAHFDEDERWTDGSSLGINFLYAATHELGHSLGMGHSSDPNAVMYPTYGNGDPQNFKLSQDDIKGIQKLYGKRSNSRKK
Excerpt: as §1, §2, §3

[4] = target: MMP-3CD (catalytic domain of stromelysin-1) (Homo sapiens, UniProt P08254); assay: Thiopeptolide hydrolysis assay, MMP-3CD; conditions: Table 2; thiopeptolide substrate, MES buffer pH 6.0; read-out: IC50 (μM) Versus Certain MMPs: MMP03 (CD)
Description: as §1, §2, §3
It should be appreciated that the assay buffer used with MMP-3CD was 50 mM of N-morpholinoethane sulfonate (“MES”) at pH 6.0 rather than the HEPES buffer at pH 7.0 described above.

[5] = target: MMP-14CD (catalytic domain of MMP-14) (Homo sapiens, UniProt P50281); assay: Thiopeptolide hydrolysis assay, MMP-14CD; conditions: Table 2; thiopeptolide substrate, HEPES pH 7.0; read-out: IC50 (μM) Versus Certain MMPs: MMP14 (CD)
Excerpt: as §1, §2, §3

[6] = target: MMP-13CD (catalytic domain of collagenase 3) (Homo sapiens, UniProt P45452); assay: Thiopeptolide hydrolysis assay, MMP-13CD; conditions: Table 2; thiopeptolide substrate, HEPES pH 7.0; read-out: IC50 (μM) Versus Certain MMPs: MMP13 (CD)
Excerpt: as §1, §2, §3

Sequence of MMP-3CD (catalytic domain of stromelysin-1) (P08254 100-272 limits assumed): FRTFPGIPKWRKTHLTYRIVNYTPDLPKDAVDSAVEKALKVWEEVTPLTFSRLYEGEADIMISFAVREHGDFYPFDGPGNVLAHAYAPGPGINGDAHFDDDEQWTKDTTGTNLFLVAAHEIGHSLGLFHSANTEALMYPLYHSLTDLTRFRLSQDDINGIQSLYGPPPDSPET
Sequence of MMP-9FL (full-length Gelatinase B) (P14780 94-707, species assumed): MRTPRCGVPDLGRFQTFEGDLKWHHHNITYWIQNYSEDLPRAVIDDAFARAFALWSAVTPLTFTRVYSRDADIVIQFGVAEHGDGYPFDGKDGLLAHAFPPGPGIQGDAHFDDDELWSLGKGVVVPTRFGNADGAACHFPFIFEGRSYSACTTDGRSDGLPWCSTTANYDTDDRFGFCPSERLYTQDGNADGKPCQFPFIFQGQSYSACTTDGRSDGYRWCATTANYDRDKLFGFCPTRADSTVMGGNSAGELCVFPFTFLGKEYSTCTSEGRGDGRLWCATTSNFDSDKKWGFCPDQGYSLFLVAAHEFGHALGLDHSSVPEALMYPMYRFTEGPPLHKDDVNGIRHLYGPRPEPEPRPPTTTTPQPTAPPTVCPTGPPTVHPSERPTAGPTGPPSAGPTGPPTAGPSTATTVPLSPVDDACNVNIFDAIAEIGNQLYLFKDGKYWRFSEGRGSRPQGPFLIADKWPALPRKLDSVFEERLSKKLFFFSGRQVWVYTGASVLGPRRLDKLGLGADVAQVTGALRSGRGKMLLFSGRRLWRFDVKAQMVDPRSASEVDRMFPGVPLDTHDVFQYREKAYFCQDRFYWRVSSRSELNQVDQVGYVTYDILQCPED

IC50 [1] [µM] | IC50 [2] [µM] | IC50 [3] [µM] | IC50 [4] [µM] | IC50 [5] [µM] | IC50 [6] [µM] | SMILES
> 100 | > 100 | > 100 | > 30 | > 100 | 0.019 | CN1C(=O)N(Cc2ccc(C(=O)O)cc2)S(=O)(=O)c2cc(C(=O)NCc3ccc(F)cc3)ccc21 [Example 25, 4-[7-(4-Fluoro-benzylcarbamoyl)-4-methyl-1,1,3-trioxo-3,4-dihydro-1H-1l^6-benzo[1,2,4]thiadiazin-2-ylmethyl]-benzoic Acid]
> 30 | > 30 | > 30 | > 100 | > 30 | 0.0625 | COc1cccc(CNC(=O)c2ccc3c(c2)S(=O)(=O)N(Cc2ccccc2)C(=O)N3C)c1 [Example 34, 2-Benzyl-4-methyl-1,1,3-trioxo-1,2,3,4-tetrahydro-1l^6-benzo[1,2,4]thiadiazine-7-carboxylic acid 3-methoxy-benzylamide]
> 30 | > 30 | > 30 | > 30 | > 100 | 0.155 | COc1cc(CNC(=O)c2ccc3c(c2)S(=O)(=O)N(Cc2ccccc2)C(=O)N3C)ccn1 [Example 21, 2-Benzyl-4-methyl-1,1,3-trioxo-1,2,3,4-tetrahydro-1l^6-benzo[1,2,4]thiadiazine-7-carboxylic acid (2-methoxy-pyridin-4-ylmethyl)-amide]
> 30 | > 30 | > 30 | 13 | > 30 | 0.125 | CN1C(=O)N(Cc2ccccc2)S(=O)(=O)c2cc(C(=O)NCc3ccc4nsnc4c3)ccc21 [Example 24, 2-Benzyl-4-methyl-1,1,3-trioxo-1,2,3,4-tetrahydro-1l^6-benzo[1,2,4]thiadiazine-7-carboxylic acid (2,1,3-benzothiadiazol-5-ylmethyl)-amide]
> 30 | > 30 | > 30 | > 30 | > 30 | 0.62 | COc1ccc(CNC(=O)c2ccc3c(c2)S(=O)(=O)N(Cc2ccc4ccccc4c2)C(=O)N3C)cc1 [Example 22, 4-Methyl-2-naphthalen-2-ylmethyl-1,1,3-trioxo-1,2,3,4-tetrahydro-1l^6-benzo[1,2,4]thiadiazine-7-carboxylic acid 4-methoxy-benzylamide]
> 30 | > 30 | > 30 | 10 | > 30 | 0.31 | CNS(=O)(=O)c1ccc(CN2C(=O)N(C)c3ccc(C(=O)NCc4ccc(OC)cc4)cc3S2(=O)=O)cc1 [Example 18, 4-Methyl-2-(4-methylsulfamoyl-benzyl)-1,1,3-trioxo-1,2,3,4-tetrahydro-1l^6-benzo[1,2,4]thiadiazine-7-carboxylic acid 4-methoxy-benzylamide]
> 30 | > 30 | > 30 | > 100 | > 30 | 0.155 | COc1ccc(CNC(=O)c2ccc3c(c2)S(=O)(=O)N(Cc2ccc(C(N)=O)cc2)C(=O)N3C)cc1 [Example 14, 2-(4-Carbamoyl-benzyl)-4-methyl-1,1,3-trioxo-1,2,3,4-tetrahydro-1l^6-benzo[1,2,4]thiadiazine-7-carboxylic acid 4-methoxy-benzylamide]
> 100 | > 30 | > 30 | > 100 | > 30 | 0.345 | CN1C(=O)N(Cc2ccccc2)S(=O)(=O)c2cc(C(=O)NCc3ccc(F)cc3)ccc21 [Example 16, 2-Benzyl-4-methyl-1,1,3-trioxo-1,2,3,4-tetrahydro-1l^6-benzo[1,2,4]thiadiazine-7-carboxylic acid 4-fluoro-benzylamide]
> 100 | > 100 | > 30 | 15 | > 100 | 0.0062 | COc1ccc(CNC(=O)c2ccc3c(c2)S(=O)(=O)N(Cc2ccc(-c4nn[nH]n4)cc2)C(=O)N3C)cc1 [Example 32, 4-Methyl-1,1,3-trioxo-2-[4-(2H-tetrazol-5-yl)-benzyl]-1,2,3,4-tetrahydro-1l^6-benzo[1,2,4]thiadiazine-7-carboxylic acid 4-methoxy-benzylamide]
> 30 | > 30 | > 30 | 10 | > 30 | 0.29 | COc1ccc(CNC(=O)c2ccc3c(c2)S(=O)(=O)N(Cc2ccc(C(=O)N4CCCCC4)cc2)C(=O)N3C)cc1 [Example 27, 4-Methyl-1,1,3-trioxo-2-[4-(piperidine-1-carbonyl)-benzyl]-1,2,3,4-tetrahydro-1l^6-benzo[1,2,4]thiadiazine-7-carboxylic acid 4-methoxy-benzylamide]
> 100 | > 100 | > 30 | > 30 | > 100 | 0.00485 | COc1cccc(CNC(=O)c2ccc3c(c2)S(=O)(=O)N(Cc2ccc(C(=O)O)cc2)C(=O)N3C)c1 [Example 31, 4-[7-(3-Methoxy-benzylcarbamoyl)-4-methyl-1,1,3-trioxo-3,4-dihydro-1H-1l^6-benzo[1,2,4]thiadiazin-2-ylmethyl]-benzoic Acid]
> 30 | > 30 | > 30 | 11 | > 30 | 0.23 | COc1ccc(CNC(=O)c2ccc3c(c2)S(=O)(=O)N(Cc2ccc(S(=O)(=O)N4CCOCC4)cc2)C(=O)N3C)cc1 [Example 19, 4-Methyl-2-[4-(morpholine-4-sulfonyl)-benzyl]-1,1,3-trioxo-1,2,3,4-tetrahydro-1l^6-benzo[1,2,4]thiadiazine-7-carboxylic acid 4-methoxy-benzylamide]
> 30 | > 30 | > 30 | 9.4 | > 30 | 0.13 | COc1ccc(CNC(=O)c2ccc3c(c2)S(=O)(=O)N(Cc2ccc(C#N)cc2)C(=O)N3C)cc1 [Example 29, 2-(4-Cyano-benzyl)-4-methyl-1,1,3-trioxo-1,2,3,4-tetrahydro-1l^6-benzo[1,2,4]thiadiazine-7-carboxylic acid 4-methoxy-benzylamide]
> 30 | 10 | > 30 | > 30 | > 30 | 0.385 | COC(=O)c1ccc(CN2C(=O)N(C)c3ccc(C(=O)NCc4ccc(F)cc4)cc3S2(=O)=O)cc1 [Example 20, 4-[7-(4-Fluoro-benzylcarbamoyl)-4-methyl-1,1,3-trioxo-3,4-dihydro-1H-1l^6-benzo[1,2,4]thiadiazin-2-ylmethyl]-benzoic Acid Methyl Ester]
> 100 | > 100 | 82 | > 30 | > 100 | 0.0355 | COc1ccc(CNC(=O)c2ccc3c(c2)S(=O)(=O)N(Cc2ccc(CC(=O)O)cc2)C(=O)N3C)cc1 [Example 30, {4-[7-(4-Methoxy-benzylcarbamoyl)-4-methyl-1,1,3-trioxo-3,4-dihydro-1H-1l^6-benzo[1,2,4]thiadiazin-2-ylmethyl]-phenyl}-acetic Acid]
> 100 | > 100 | > 100 | > 30 | > 100 | 0.25 | COc1ccc(CNC(=O)c2ccc3c(c2)S(=O)(=O)N(Cc2ccc(C(=O)NC(C(=O)O)C(C)C)cc2)C(=O)N3C)cc1 (stereo not drawn) [Example 28, 2-{4-[7-(4-Methoxy-benzylcarbamoyl)-4-methyl-1,1,3-trioxo-3,4-dihydro-1l^6-benzo[1,2,4]thiadiazin-2-ylmethyl]-benzoylamino}-3-methyl-butyric Acid]
